Laboratory results published in patent publication US7282504B2, “Kinase inhibitors” (Amgen Inc., priority 2000, dated 2007).

Experiments:
Format in all cases: biochemical
[1] = target: T1, EGFR-1 (Homo sapiens, UniProt P00533); assay: Kinase inhibition, 33P transfer to plate-bound substrate: EGFR-1
T1 construct: Kinases are expressed as either kinase domains or full-length constructs; made in house
From the text: (§1) The inhibitor compounds described herein are screened in the following manner. Kinases suitable for use in the following protocol to determine kinase activity of the compounds described herein include, but are not limited to: Lck, Lyn, Src, Fyn, Syk, Zap-70, Itk, Tec, Btk, EGFR, ErbB2, Kdr, Flt-1, Flt-3, Tek, c-Met, InsR, and AKT.
(§2) Kinases are expressed as either kinase domains or full-length constructs fused to glutathione S-transferase (GST) or polyHistidine tagged fusion proteins in either E. coli or Baculovirus-High Five expression systems. They are purified to near homogeneity by affinity chromatography essentially as previously described (Lehr et al., 1996; Gish et al., 1995). In some instances, kinases are co-expressed or mixed with purified or partially purified regulatory polypeptides prior to measurement of activity.
(§3) Kinase activity and inhibition are measured essentially by established protocols (Braunwalder et al., 1996). Briefly, The transfer of ^33PO4 from ATP to the synthetic substrates poly(Glu, Tyr) 4:1 or poly(Arg, Ser) 3:1 attached to the bioactive surface of microtiter plates serves as the basis to evaluate enzyme activity. After an incubation period, the amount of phosphate transferred is measured by first washing the plate with 0.5% phosphoric acid, adding liquid scintillant, and then counting in a liquid scintillation detector. The IC50 is determined by the concentration of compound that causes a 50% reduction in the amount of ^33P incorporated onto the substrate bound to the plate.

[2] = target: T2, Itk-1 (Homo sapiens, UniProt Q08881); assay: Kinase inhibition, 33P transfer to plate-bound substrate: Itk-1
T2 construct: Kinases are expressed as either kinase domains or full-length constructs; made in house
T2 sequence (Q08881 1-620): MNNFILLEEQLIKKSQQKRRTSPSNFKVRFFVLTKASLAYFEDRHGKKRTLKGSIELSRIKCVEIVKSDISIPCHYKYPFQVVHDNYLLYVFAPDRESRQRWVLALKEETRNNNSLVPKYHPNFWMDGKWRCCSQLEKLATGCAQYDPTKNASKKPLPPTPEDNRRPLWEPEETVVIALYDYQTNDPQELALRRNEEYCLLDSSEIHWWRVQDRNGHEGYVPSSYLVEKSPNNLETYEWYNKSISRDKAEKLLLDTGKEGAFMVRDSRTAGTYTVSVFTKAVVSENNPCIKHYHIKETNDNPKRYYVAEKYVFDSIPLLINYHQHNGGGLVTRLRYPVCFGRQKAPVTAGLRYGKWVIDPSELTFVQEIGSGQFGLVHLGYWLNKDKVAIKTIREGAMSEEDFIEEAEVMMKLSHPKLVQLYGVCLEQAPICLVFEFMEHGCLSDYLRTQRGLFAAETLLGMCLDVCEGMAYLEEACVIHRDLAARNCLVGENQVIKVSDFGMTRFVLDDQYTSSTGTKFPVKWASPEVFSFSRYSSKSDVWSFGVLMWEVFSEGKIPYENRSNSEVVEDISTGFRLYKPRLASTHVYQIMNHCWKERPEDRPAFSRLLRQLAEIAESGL
From the text: as §1, §2, §3

[3] = target: T3, KDR-1 (Homo sapiens, UniProt P35968); assay: Kinase inhibition, 33P transfer to plate-bound substrate: KDR-1
T3 construct: Kinases are expressed as either kinase domains or full-length constructs; made in house
T3 sequence (P35968 20-1356): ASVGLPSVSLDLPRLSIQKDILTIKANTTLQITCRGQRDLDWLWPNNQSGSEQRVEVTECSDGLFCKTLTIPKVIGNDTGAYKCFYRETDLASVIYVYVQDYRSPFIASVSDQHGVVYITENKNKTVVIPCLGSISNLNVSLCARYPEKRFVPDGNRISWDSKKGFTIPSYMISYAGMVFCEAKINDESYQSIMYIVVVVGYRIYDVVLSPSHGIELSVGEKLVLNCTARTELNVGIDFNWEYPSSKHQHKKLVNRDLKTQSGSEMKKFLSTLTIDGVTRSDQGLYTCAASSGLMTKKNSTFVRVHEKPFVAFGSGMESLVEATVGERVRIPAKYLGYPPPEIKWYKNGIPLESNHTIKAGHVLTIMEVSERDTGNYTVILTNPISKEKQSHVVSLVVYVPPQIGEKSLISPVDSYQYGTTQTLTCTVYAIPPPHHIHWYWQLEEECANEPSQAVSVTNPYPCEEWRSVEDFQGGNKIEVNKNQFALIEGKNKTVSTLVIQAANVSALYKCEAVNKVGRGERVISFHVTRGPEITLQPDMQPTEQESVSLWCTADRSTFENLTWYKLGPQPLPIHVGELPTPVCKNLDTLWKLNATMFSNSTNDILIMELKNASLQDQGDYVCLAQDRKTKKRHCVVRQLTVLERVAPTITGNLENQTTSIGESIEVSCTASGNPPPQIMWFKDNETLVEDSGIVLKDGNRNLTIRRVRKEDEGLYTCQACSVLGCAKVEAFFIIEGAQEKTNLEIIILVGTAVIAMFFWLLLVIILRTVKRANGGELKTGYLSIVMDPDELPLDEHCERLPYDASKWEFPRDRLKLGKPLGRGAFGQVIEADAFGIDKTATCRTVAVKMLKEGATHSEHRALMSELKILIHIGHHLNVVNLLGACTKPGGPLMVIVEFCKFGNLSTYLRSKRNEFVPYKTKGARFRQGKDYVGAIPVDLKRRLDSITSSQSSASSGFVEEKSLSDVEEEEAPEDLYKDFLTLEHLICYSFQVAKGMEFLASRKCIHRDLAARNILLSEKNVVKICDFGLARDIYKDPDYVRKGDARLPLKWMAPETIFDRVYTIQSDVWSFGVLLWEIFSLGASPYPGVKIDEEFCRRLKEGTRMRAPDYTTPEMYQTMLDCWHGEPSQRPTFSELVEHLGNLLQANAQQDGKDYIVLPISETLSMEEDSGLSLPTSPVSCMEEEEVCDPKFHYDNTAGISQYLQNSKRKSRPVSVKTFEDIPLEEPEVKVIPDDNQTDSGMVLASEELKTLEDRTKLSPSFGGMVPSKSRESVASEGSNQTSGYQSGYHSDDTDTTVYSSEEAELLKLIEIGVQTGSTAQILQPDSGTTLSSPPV
From the text: as §1, §2, §3

[4] = target: T4, Lck-1 (Homo sapiens, UniProt P06239); assay: Kinase inhibition, 33P transfer to plate-bound substrate: Lck-1
T4 construct: Kinases are expressed as either kinase domains or full-length constructs; made in house
T4 sequence (P06239 whole entry, the tested form may be a part): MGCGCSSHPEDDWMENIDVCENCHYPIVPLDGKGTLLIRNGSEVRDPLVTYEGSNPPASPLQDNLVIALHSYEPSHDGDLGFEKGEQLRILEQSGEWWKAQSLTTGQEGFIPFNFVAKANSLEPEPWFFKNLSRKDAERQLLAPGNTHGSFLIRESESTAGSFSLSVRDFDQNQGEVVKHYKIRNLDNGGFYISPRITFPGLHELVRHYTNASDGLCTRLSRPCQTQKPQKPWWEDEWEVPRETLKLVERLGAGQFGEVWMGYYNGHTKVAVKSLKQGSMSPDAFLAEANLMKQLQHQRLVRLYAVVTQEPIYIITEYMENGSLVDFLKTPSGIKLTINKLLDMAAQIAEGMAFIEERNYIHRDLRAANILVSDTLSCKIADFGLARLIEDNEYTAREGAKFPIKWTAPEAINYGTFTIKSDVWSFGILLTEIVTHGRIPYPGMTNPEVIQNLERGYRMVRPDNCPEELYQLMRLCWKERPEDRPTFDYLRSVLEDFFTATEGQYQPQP
From the text: as §1, §2, §3

[5] = target: T5, Lck-2 (Homo sapiens, UniProt P06239); assay: Kinase inhibition, 33P transfer to plate-bound substrate: Lck-2
T5 construct: Kinases are expressed as either kinase domains or full-length constructs; made in house
T5 sequence (P06239 whole entry, the tested form may be a part): as above
From the text: as §1, §2, §3

[6] = target: T6, Met-1 (Homo sapiens, UniProt P08581); assay: Kinase inhibition, 33P transfer to plate-bound substrate: Met-1
T6 construct: Kinases are expressed as either kinase domains or full-length constructs; made in house
From the text: as §1, §2, §3

[7] = target: T7, Akt3-1 (Homo sapiens, UniProt Q9Y243); assay: Kinase inhibition, 33P transfer to plate-bound substrate: Akt3-1
T7 construct: Kinases are expressed as either kinase domains or full-length constructs; made in house
T7 sequence (Q9Y243 whole entry, the tested form may be a part): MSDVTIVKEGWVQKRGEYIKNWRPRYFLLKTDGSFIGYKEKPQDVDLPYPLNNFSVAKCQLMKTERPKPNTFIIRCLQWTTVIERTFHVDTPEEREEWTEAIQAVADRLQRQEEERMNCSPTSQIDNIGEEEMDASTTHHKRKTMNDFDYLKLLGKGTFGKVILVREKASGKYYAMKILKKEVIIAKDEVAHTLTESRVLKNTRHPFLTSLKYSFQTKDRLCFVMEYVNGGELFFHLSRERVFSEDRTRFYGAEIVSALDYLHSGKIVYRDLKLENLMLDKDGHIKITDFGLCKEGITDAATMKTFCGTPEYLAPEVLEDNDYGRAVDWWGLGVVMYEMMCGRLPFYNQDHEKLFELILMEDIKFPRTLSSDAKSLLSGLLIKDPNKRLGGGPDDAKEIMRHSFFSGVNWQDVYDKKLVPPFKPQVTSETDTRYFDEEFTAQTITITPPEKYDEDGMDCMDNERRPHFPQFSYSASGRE
From the text: as §1, §2, §3

[8] = target: T8, ErbB2-1 (Homo sapiens, UniProt P04626); assay: Kinase inhibition, 33P transfer to plate-bound substrate: ErbB2-1
T8 construct: Kinases are expressed as either kinase domains or full-length constructs; made in house
T8 sequence (P04626 23-1255): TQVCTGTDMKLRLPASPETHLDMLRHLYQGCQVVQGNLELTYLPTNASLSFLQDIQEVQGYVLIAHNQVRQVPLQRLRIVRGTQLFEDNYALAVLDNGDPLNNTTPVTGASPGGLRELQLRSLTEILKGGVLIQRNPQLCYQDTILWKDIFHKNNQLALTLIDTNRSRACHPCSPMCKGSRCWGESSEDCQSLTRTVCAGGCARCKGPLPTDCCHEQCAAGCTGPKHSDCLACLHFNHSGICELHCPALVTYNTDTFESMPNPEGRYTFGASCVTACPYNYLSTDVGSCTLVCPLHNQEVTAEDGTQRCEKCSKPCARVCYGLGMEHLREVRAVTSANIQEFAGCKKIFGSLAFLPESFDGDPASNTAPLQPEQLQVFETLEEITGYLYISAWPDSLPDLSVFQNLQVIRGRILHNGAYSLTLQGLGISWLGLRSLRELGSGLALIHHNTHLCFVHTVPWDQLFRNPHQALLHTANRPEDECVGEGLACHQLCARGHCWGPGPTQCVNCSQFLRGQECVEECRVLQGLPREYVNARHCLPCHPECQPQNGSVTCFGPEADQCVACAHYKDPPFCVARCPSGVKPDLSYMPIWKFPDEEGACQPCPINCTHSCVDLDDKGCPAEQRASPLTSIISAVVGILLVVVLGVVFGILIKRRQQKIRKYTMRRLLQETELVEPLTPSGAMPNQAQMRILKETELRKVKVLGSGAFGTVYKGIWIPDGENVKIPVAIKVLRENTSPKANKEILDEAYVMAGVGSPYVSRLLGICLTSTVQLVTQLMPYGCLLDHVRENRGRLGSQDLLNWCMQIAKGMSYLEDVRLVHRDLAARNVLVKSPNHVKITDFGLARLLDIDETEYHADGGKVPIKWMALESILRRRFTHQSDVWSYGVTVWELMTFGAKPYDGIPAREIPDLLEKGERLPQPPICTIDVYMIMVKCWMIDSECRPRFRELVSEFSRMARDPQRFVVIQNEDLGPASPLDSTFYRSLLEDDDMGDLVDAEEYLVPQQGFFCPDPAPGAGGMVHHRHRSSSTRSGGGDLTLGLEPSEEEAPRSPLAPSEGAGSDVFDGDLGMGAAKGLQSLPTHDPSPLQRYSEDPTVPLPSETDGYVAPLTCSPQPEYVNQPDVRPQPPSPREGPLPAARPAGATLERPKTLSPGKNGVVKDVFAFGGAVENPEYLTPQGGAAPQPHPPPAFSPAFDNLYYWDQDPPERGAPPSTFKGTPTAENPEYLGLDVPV
From the text: as §1, §2, §3

[9] = target: T9, IGFR-1 (Homo sapiens, UniProt P08069); assay: Kinase inhibition, 33P transfer to plate-bound substrate: IGFR-1
T9 construct: Kinases are expressed as either kinase domains or full-length constructs; made in house
From the text: as §1, §2, §3

[10] = target: T10, PDGFRB (Homo sapiens, UniProt P09619); assay: Kinase inhibition, 33P transfer to plate-bound substrate: PDGFRB
T10 construct: Kinases are expressed as either kinase domains or full-length constructs; made in house
From the text: as §1, §2, §3

[11] = target: T11, Zap-1 (Homo sapiens, UniProt P43403); assay: Kinase inhibition, 33P transfer to plate-bound substrate: Zap-1
T11 construct: Kinases are expressed as either kinase domains or full-length constructs; made in house
T11 sequence (P43403 1-619): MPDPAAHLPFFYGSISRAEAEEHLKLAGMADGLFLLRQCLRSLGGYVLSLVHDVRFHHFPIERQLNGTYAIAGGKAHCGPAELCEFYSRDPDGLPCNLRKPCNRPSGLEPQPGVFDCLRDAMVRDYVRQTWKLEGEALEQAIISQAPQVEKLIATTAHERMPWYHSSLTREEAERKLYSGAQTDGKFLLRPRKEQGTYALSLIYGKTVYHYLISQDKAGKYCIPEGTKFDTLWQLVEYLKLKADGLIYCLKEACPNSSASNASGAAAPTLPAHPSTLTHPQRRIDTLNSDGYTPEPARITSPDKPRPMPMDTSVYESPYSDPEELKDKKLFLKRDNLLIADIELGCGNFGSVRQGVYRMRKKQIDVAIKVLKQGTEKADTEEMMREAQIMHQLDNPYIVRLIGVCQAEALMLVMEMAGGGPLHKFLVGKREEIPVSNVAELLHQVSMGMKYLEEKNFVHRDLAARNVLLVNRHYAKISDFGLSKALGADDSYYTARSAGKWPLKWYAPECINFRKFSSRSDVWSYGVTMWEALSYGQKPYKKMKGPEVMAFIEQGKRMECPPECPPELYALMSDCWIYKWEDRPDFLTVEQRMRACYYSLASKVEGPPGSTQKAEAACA
From the text: as §1, §2, §3

[12] = target: T12, FGFR1-1 (Homo sapiens, UniProt P11362); assay: Kinase inhibition, 33P transfer to plate-bound substrate: FGFR1-1
T12 construct: Kinases are expressed as either kinase domains or full-length constructs; made in house
From the text: as §1, §2, §3

[13] = target: T13, Flt1-1 (Homo sapiens, UniProt P17948); assay: Kinase inhibition, 33P transfer to plate-bound substrate: Flt1-1
T13 construct: Kinases are expressed as either kinase domains or full-length constructs; made in house
From the text: as §1, §2, §3

[14] = target: T14, InsR-1 (Homo sapiens, UniProt P06213); assay: Kinase inhibition, 33P transfer to plate-bound substrate: InsR-1
T14 construct: Kinases are expressed as either kinase domains or full-length constructs; made in house
From the text: as §1, §2, §3

[15] = target: T15, Ret-1 (Homo sapiens, UniProt P07949); assay: Kinase inhibition, 33P transfer to plate-bound substrate: Ret-1
T15 construct: Kinases are expressed as either kinase domains or full-length constructs; made in house
From the text: as §1, §2, §3

[16] = target: T16, Tek-1 (Homo sapiens, UniProt Q02763); assay: Kinase inhibition, 33P transfer to plate-bound substrate: Tek-1
T16 construct: Kinases are expressed as either kinase domains or full-length constructs; made in house
From the text: as §1, §2, §3

T1 sequence (P00533 25-1210): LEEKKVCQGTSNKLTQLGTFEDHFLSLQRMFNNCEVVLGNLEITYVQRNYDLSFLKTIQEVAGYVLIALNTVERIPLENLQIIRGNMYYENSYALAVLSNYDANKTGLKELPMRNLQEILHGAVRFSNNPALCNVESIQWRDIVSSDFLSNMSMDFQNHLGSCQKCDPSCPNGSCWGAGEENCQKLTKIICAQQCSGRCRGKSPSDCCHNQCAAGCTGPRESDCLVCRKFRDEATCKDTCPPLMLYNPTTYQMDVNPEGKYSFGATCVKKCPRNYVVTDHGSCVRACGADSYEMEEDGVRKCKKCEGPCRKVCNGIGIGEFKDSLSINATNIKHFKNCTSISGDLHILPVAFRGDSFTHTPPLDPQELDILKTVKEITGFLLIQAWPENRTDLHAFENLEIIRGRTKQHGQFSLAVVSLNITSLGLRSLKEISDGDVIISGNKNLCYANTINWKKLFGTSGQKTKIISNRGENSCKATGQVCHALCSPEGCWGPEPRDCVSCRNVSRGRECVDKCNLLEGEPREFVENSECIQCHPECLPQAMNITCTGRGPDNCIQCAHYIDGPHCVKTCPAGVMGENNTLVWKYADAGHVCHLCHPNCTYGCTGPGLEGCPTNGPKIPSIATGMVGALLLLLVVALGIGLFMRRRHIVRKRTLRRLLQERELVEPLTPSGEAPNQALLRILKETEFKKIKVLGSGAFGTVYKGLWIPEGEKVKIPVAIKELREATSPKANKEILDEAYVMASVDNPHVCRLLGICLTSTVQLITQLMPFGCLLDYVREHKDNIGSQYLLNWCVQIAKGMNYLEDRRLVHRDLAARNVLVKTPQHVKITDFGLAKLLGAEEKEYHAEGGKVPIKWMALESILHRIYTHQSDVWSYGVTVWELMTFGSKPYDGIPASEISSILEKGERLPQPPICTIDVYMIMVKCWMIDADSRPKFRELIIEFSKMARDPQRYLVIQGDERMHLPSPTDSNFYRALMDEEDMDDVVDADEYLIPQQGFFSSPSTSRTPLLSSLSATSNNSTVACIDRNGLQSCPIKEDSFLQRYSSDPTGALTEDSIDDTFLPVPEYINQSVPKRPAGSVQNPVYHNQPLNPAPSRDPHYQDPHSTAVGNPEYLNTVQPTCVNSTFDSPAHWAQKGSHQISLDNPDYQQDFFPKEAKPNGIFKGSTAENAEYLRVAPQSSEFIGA

SMILES | IC50 [1] [µM] | IC50 [2] [µM] | IC50 [3] [µM] | IC50 [4] [µM] | IC50 [5] [µM] | IC50 [6] [µM] | IC50 [7] [µM] | IC50 [8] [µM] | IC50 [9] [µM] | IC50 [10] [µM] | IC50 [11] [µM] | IC50 [12] [µM] | IC50 [13] [µM] | IC50 [14] [µM] | IC50 [15] [µM] | IC50 [16] [µM]
COc1cc(Nc2ccnc(Nc3ccc(OCc4ccccc4)cc3)n2)cc(OC)c1OC [Compound 58] | ≥ 10 | 5 to 10 | 5 to 10 | 5 to 10 | < 1.5 | 5 to 10 |  |  |  |  |  |  |  |  |  | 
COc1cc(Nc2nccc(-n3ccc(-c4ccc(Cl)cc4)n3)n2)cc(OC)c1OC [Compound 33] | ≥ 10 | ≥ 10 | ≥ 10 | ≥ 10 | ≥ 10 | ≥ 10 | ≥ 10 | ≥ 10 | ≥ 10 | ≥ 10 | 5 to 10 |  |  |  |  | 
COc1cc(Nc2ccnc(Nc3ccc4c(cnn4Cc4ccccc4)c3)n2)cc(OC)c1OC [Compound 37] | 1.5 to 5 | 1.5 to 5 | 1.5 to 5 | < 1.5 | < 1.5 | 1.5 to 5 | ≥ 10 | < 1.5 | < 1.5 | < 1.5 | ≥ 10 |  |  |  |  | 
COc1cc(Nc2ccnc(Nc3ccc(Oc4ccccc4)cc3)n2)cc(OC)c1OC [Compound 59] | 5 to 10 | 5 to 10 | 5 to 10 | 5 to 10 | < 1.5 | 5 to 10 |  |  |  |  |  |  |  |  |  | 
Clc1cccc(Nc2ccnc(Nc3cccc(Cl)c3)n2)c1 [Compound 57] | ≥ 10 | 5 to 10 | < 1.5 | ≥ 10 | < 1.5 | 1.5 to 5 | ≥ 10 | ≥ 10 | < 1.5 | 5 to 10 | ≥ 10 | 5 to 10 | 5 to 10 | 5 to 10 | < 1.5 | 
COc1cc(Nc2ccnc(-n3ccc4ccccc43)n2)cc(OC)c1OC [Compound 32] | ≥ 10 |  | 5 to 10 | ≥ 10 | ≥ 10 | ≥ 10 | ≥ 10 |  |  |  | ≥ 10 |  |  |  |  | ≥ 10
COc1ccc(-c2ccn(-c3ccnc(Nc4cc(OC)c(OC)c(OC)c4)n3)n2)cc1 [Compound 34] | 5 to 10 | ≥ 10 | ≥ 10 | ≥ 10 | ≥ 10 | ≥ 10 | ≥ 10 | ≥ 10 | ≥ 10 | ≥ 10 | 5 to 10 |  |  |  |  | 
Cc1cccc(Nc2nccc(Nc3cccc(Br)c3)n2)c1 [Compound 54] | ≥ 10 | ≥ 10 | 5 to 10 | ≥ 10 | ≥ 10 | ≥ 10 | ≥ 10 | ≥ 10 | < 1.5 | 5 to 10 |  |  |  |  |  | 
COc1cc(Nc2nccc(Nc3ccc4c(cnn4Cc4ccccc4)c3)n2)cc(OC)c1OC [Compound 36] | < 1.5 | < 1.5 | < 1.5 | < 1.5 | < 1.5 | 1.5 to 5 | ≥ 10 | < 1.5 | < 1.5 | < 1.5 | 5 to 10 |  |  |  |  | 
COc1cc(Nc2nccc(-n3c(=O)oc4ccccc43)n2)cc(OC)c1OC [Compound 25] | ≥ 10 | ≥ 10 | ≥ 10 | ≥ 10 | ≥ 10 | ≥ 10 | ≥ 10 | ≥ 10 | ≥ 10 | ≥ 10 | ≥ 10 |  |  |  |  | ≥ 10
Cc1cccc(Nc2ccnc(Nc3cccc(Br)c3)n2)c1 [Compound 60] | ≥ 10 | 1.5 to 5 | 1.5 to 5 | ≥ 10 | < 1.5 | 5 to 10 | ≥ 10 |  | < 1.5 | 1.5 to 5 |  |  |  |  |  | 
COc1cc(Nc2nccc(-n3c(N)nc4ccccc43)n2)cc(OC)c1OC [Compound 11] | ≥ 10 | 5 to 10 | 5 to 10 | 5 to 10 | 1.5 to 5 | 5 to 10 | 5 to 10 |  |  |  | ≥ 10 |  |  |  |  | ≥ 10
